Converted amounts (≈) assume the structure as drawn. “And” between values parts separate entries of the source, which are not always exact repeats. Equal entries are not always repeated. Where two headings read alike, the source gives them in different places.
Tests used:
[1] = test system: Leishmania aethiopica promastigotes; experiment: In vitro antipromastigote (antileishmanial) assay, AlamarBlue; type: cell-based
Procedure: The viability of promastigotes can be estimated by microscopically counting live cells, measuring enzyme activities via the 3-(4,5-dimethyl-thiazol-2-yl)-2,5-diphenyl-tetrazolium bromide (MTT) assay, etc. The frequent use of these methods is hampered due to the lengthy and time-consuming procedures followed in the test. […] The extent of fluorescence produced by each sample is strongly correlated with the number of living cells.
A complete culture medium was prepared from RPMI-1640, 10% HIFCS, 1% penicillin–streptomycin, and 1% L-glutamine for the in vitro antipromastigote assay. The Leishmania aethiopica isolate was grown first on Novy-MacNeal-Nicolle (NNN) medium and then in tissue-culture flasks containing RPMI-1640 medium supplemented with 10% HIFCS and 1% 100 IU penicillin/mL-100 µg/mL streptomycin solution at 22 ℃ [35].
The entire test compound was dissolved in DMSO to a final concentration of 1 mg/mL. The final DMSO concentration was adjusted not to exceed v/v 1% to avoid its inhibitory effect against parasite proliferation or change in morphology. Six different concentrations of test compounds, ranging from 10 µg/mL to 0.04 µg/mL, were prepared by […] serial dilutions. Amphotericin B deoxycholate (with a concentration ranging from 0.5 µg/mL to 0.002 µg/mL) and miltefosine (with a concentration ranging from 40 µg/mL to 0.16 µg/mL) were used as a positive control and DMSO (v/v 1%) in complete media was used as a negative control to compare the antileishmanial activities of test compounds [36]. All the prepared drugs were stored at − 20 ℃ until used in the experiment.
The antileishmanial activity of the test compounds was evaluated in vitro against isolates of Leishmania aethiopica promastigotes. 100 µL of the parasite suspension containing 3 × 10^6 promastigotes per milliliter was added to 96-well plates. The six different concentrations of test compounds and reference drugs were then added in triplicate. DMSO in complete RPMI media was used as a negative control to compare the antileishmanial activities of the test compounds. After 24 h incubation, 20 µL of fluorochrome AlamarBlue® (12.5 mg resazurin dissolved in 100 mL of distilled water) was added to each well. Then, the absorbance of each well was measured after 4 h of incubation at wavelengths of 492 and 630 nm using an ELISA reader for the quantitative determination of viable cells. Finally, the IC50 values were computed from sigmoidal dose–response curves using GraphPad Prism 5.0 software (GraphPad Software, Inc., San Diego, CA, USA).

[2] = design: method as in PMID 25768697; conditions: cited from earlier work
[3] = test system: Plasmodium berghei ANKA strain; experiment: In vivo antimalarial four-day suppressive test; design: species or system Swiss albino mice; conditions: for % Parasitemia / Mean survival time: mean ± SD; for inhibition in vivo at 48.46 µmol/kg: Plasmodium berghei, in Mus musculus, 96 h, read-out: % Suppression; for Mean survival time: 48.46 µmol/kg per day (CQ 25 mg/kg), ND = no mouse death recorded during the study period
Source text: The four-day suppressive test was implemented to screen the antimalarial activity of the target compounds as it is effective in evaluating early infections and convenient to assess the prodrug effects of test compounds [30]. In this study, the in vivo antimalarial activity of the target compounds was investigated by using mice infected with Plasmodium berghei (achieve steady-state infection) at a dose of 48.4 µmol/kg per day. The results of the antimalarial activity screening of target compounds against the control groups were expressed based on mean parasitemia and percent inhibition of parasitemia (Table 2) which is known as a reliable parameter for in vivo antimalarial screening tests. […] While compounds 9, 10 and 11 containing amidic carbonyl group had less than 50% mean percent suppression compared to the positive control groups. Among the tested compounds, bis-[N,N-dimethylaminomethylene-4-(3-(4-methylphenyl)-4-(hydrazonomethylene)-1H-pyrazole-1-yl)benzenesulfonamide] […] On the other hand, there was an increase in the mean survival time (9.8 ± 1.3) of mice treated with a half dose ([…]) of compound 15, highlighting the potential dose-dependent toxicity associated with bis-structure due to cleavage of acid labile C = N bond and subsequent increase in concentration in the systemic circulation. […] This could be attributed to the presence of a primary amine group adjacent to the C = N bond that can increase the strength of binding interaction with the active site of the receptor by hydrogen bonding. Moreover, the hydrophobic interaction imparted by the methylated phenyl group with the amino acid residues in the enzyme pocket may be beneficial for the observed antimalarial activity of compound 14. The compounds containing C = O bond (9–12) near C = N had relatively lower antimalarial activity due to the electron-withdrawing effect and subsequent decrease in hydrogen bonding interactions with the different functional groups reside in the enzyme pocket.
The in vivo antimalarial activity of the synthesized compounds was determined using the four-day standard suppressive test using Swiss albino mice donated by the Ethiopian Health and Nutrition Institute, Addis Ababa, Ethiopia. Briefly, Swiss albino mice were infected with Plasmodium berghei ANKA strain (0.2 mL of 2 × 10^7 parasitized erythrocytes) through intraperitoneal injection. After 2 h of infection, the mice were weighed and randomly divided into nine groups of five mice per cage. Groups 1–7 received each test compound ([…]) dissolved in a vehicle containing 7% Tween 80, 3% ethanol, and water. Group 8 was treated with chloroquine phosphate (25 mg/kg) suspended in 7% Tween 80, 3% ethanol, and water which served as a positive control. Group 9 received 2 mL/100 g of the negative control (vehicle 7% Tween 80, 3% ethanol, and water). On day four (96 h post-infection), a blood smear was taken from the tail of each mouse, fixed with absolute ethanol, and stained with Giemsa stain. Then, the level of parasitemia was determined microscopically by counting four fields of approximately 100 erythrocytes per field. Finally, the antimalarial effects of control groups and test compounds were expressed in terms of blood parasitemia, percent suppression and mean survival time of mice.
The % suppression and % parasitemia in the antimalarial activity testing were computed using the formulas given below and the resulting data along with the mean survival time was analyzed using Microsoft office excel 2007. The variation in the values of suppressive test was assessed by using one-way analysis of variance (ANOVA) and p < 0.05 is considered as stastically significant.
Parasitemia(%)=Numberofinfectedredbloodcells/Numberoftotalredbloodcells×100
Suppression(%)=Parasitemiaintheuntreatedgroup-Parasitemiainthetreatedgroup/Parasitemiainuntreatedgroup×100

[4] = test system: chloroquine-resistant RKL9 strains; conditions: read-out: IC50 against chloroquine-resistant RKL9 strains; cited from earlier work
[5] = In vitro cytotoxicity test; type: cell-based, African green monkey; conditions: African green monkey, VERO cells (African green monkey kidney cells); normal VERO cells, 72 h, formazan OD
Procedure: (§1) The cytotoxicity of compound 13 with promising antileishmanial activity was investigated in vitro against African green monkey kidney cells (VERO cells). In a 96-well plate, VERO cells (1 × 10^5 cells per well) were incubated in triplicates with different concentrations of compound 13 (0–100 µM) for 72 h at 37 ℃ incubator with 95% humidity and 5% CO2 and the cell viability was determined by measuring the optical density (OD) of formazan. […] The CC50 and IC50 values were computed using the formula: Growth inhibition (%) = (ODcontrol-ODtest/ODcontrol)×100 . In addition, the selectivity indices (SI) were computed using the formula SI = CC50/IC50.

VERO cells = experiment: In vitro cytotoxicity test; type: cell-based, African green monkey; conditions: CC50 VERO cells / IC50 Leishmania aethiopica
Procedure: as §1

[6] = In vivo acute toxicity test (oral and intraperitoneal); conditions: mice
Procedure: The mice were weighed and divided into five groups of six mice per cage. After fasting them overnight, groups 1–4 received the test compound suspended in 1% acacia gum was administered orally at doses of 50, 100, 200, and 300 mg/kg. Group 5 (served as a control) was treated with the solvent (1% acacia gum) at a maximum dose of 1 mL/100 gm of body weight. […] Follow-up continued for 14 days with special attention for the first 24 h.

[7] = Leishmania aethiopica promastigotes, triplicate, 24 h incubation + 4 h AlamarBlue, read-out: IC50 Values (µg/mL), antipromastigote activity
[8] = Leishmania aethiopica promastigotes, molar form of the µg/mL values, read-out: IC50 Values (µM/mL), antipromastigote activity
[9] = P. berghei infected mice, day 4, 48.46 µmol/kg per day (CQ 25 mg/kg)
[10] = Leishmania aethiopica, value used for selectivity index, read-out: IC50 (µM) of antileishmanial activity (Table 3)

| SMILES | IC50 [1, 7] | IC50 [1, 8] | % Parasitemia [3, 9] | Mean survival time ([3]; P. berghei infected mice) | inhibition in vivo at 48.46 µmol/kg [3, 9] | other results |
| --- | --- | --- | --- | --- | --- | --- |
| C[C@@H]1[C@H](O)[C@@H](C)/C=C/C=C/C=C/C=C/C=C/C=C/C=C/[C@H](O[C@@H]2O[C@H](C)[C@@H](O)[C@H](N)[C@@H]2O)C[C@@H]2O[C@](O)(C[C@@H](O)C[C@@H](O)[C@H](O)CC[C@@H](O)C[C@@H](O)CC(=O)O[C@H]1C)C[C@H](O)[C@H]2C(=O)O [Amphotericin B, Amphotericin B deoxycholate, reference compound] | 0.047 µg/mL | 0.035 µM |  |  |  | IC50, antileishmanial activities [2]: 0.0472 µg/mL (≈ 0.0511 µM) |
| CCN(CC)CCCC(C)Nc1ccnc2cc(Cl)ccc12 (stereo not drawn) [CQ, Chloroquine phosphate, reference compound] |  |  | 0% |  |  | inhibition in vivo at 48.46 µmol/kg [3]: 100%; IC50 [4]: 0.192 µM |
| O=C(NN=Cc1cn(-c2ccc(Br)cc2)nc1-c1ccccc1)c1ccccc1O [Compound 9, Nʹ-[(1-(4-bromophenyl)-3-phenyl-1H-pyrazol-4-yl)methylene] salicylhydrazide] | 0.084 µg/mL | 0.256 µM | 34.7 ± 4.1% | 8.6 ± 1.8 days | < 50% |  |
| CN(C)C=NS(=O)(=O)c1ccc(-n2cc(/C=N/NC(=O)c3ccccc3O)c(-c3ccc(Cl)cc3)n2)cc1 [Compound 10, Nʹ-[(3-(4-chlorophenyl)-1-((4-N,N-dimethylaminomethylenesulfonamido)phenyl)-1H-pyrazol-4-yl)methylene] salicylhydrazide] | 0.207 µg/mL | 0.45 µM | 33.0 ± 6.7% | 6.8 ± 0.7 days | < 50% |  |
| Cc1ccc(-n2cc(C=NNC(=O)c3ccccc3O)c(-c3ccccc3)n2)cc1 [Compound 11, Nʹ-[(3-phenyl-1-(4-methylphenyl)-1H-pyrazol-4-yl)methylene] salicylhydrazide] | 5.74 µg/mL | 10.4 µM | 30.0 ± 6.7% | 8.7 ± 0.7 days | < 50% |  |
| Cc1ccc(-c2nn(-c3ccc(S(=O)(=O)N=CN(C)C)cc3)cc2/C=N/NC(=O)c2ccccc2O)cc1 [Compound 12] | 0.111 µg/mL | 0.28 µM | 67.9 ± 3.7% | 7.8 ± 1.2 days |  |  |
| Cc1ccc(-c2nn(-c3ccc(S(=O)(=O)N=CN(C)C)cc3)cc2/C=N/Nc2ccccc2)cc1 [Compound 13, N,N-dimethylaminomethylene-4-[(3-(4-methylphenyl)-4-(phenylhydrazonomethylene))-1H-pyrazol-1-yl]benzenesulfonamide] |  |  | 24.0 ± 1.7% | 9.5 ± 1.9 days | > 50% | CC50 at 72 h [5]: 118 µM; SI (selectivity index, CC50/IC50) (VERO cells): 194 and 194.88; IC50 ([1]; Leishmania aethiopica, read-out: IC50 Values (µM/mL), antipromastigote activity): 0.033 µM; IC50 [1, 10]: 0.604 µM; fold more active than amphotericin B deoxycholate (antipromastigote) ([1]; ratio of IC50 values versus amphotericin B deoxycholate): ~2.6 fold; intraperitoneal acute toxicity ([6]; intraperitoneal injection ≤ 140 mg/kg, within 24 h or the entire study period): devoid of any inherent dose-dependent toxicity or death; oral acute toxicity: death ([6]; oral 50, 100, 200 and 300 mg/kg, 14 days): devoid of any death at all dose; oral acute toxicity: physical and gross behavioral observations ([6]; oral, up to highest dose 300 mg/kg): no visible symptoms of toxicity |
| Cc1ccc(-c2nn(-c3ccc(S(N)(=O)=O)cc3)cc2/C=N/N)cc1 [Compound 14, 4-[3-(4-methylphenyl)-4-hydrazonomethylene-1H-pyrazol-1-yl] benzenesulfonamide] | 3.26 µg/mL | 6.71 µM | 15.5 ± 4.1% | 9.0 ± 2.0 days |  |  |
| Cc1ccc(-c2nn(-c3ccc(S(=O)(=O)N=CN(C)C)cc3)cc2C=NN=Cc2cn(-c3ccc(S(=O)(=O)N=CN(C)C)cc3)nc2-c2ccc(C)cc2)cc1 [Compound 15, Bis-[N,N-dimethylaminomethylene-4-(3-(4-methylphenyl)-4-(hydrazonomethylene)-1H-pyrazole-1-yl)benzenesulfonamide]] | 0.181 µg/mL | 0.441 µM | 5.0 ± 1.4% | 7.7 ± 1.4 days |  | mean survival time at half dose ([3]; P. berghei infected mice, half dose (24.2 µmol/mL)): 9.8 ± 1.3 |
| CCCCCCCCCCCCCCCCOP(=O)([O-])OCC[N+](C)(C)C [Miltefosine, hexadecylphosphocholine, reference compound] | 3.13 µg/mL | 7.68 µM |  |  |  | CC50 at 72 h [5]: 99.7 µM; SI (selectivity index, CC50/IC50) (VERO cells): 12.63; IC50 [1, 10]: 7.9 µM; IC50, antileishmanial activities [2]: 3.1921 µg/mL (≈ 7.83 µM) |

Reference: PMC10775556, “Synthesis, antileishmanial, antimalarial evaluation and molecular docking study of some hydrazine-coupled pyrazole derivatives” (BMC Chemistry, 2024)
